Measured values reported in patent US9073940B2, “Tricyclic pyrazol amine derivatives” (MERCK SERONO SA, priority 2009, dated 2015).

system: 4 PI3K isoforms (Human recombinant GST-PI3K); experiment: PI3K scintillation proximity assay, best IC50 obtained with the four isoforms (alpha, beta, delta, gamma); assay type: biochemical; conditions: best IC50 obtained with the four isoforms of PI3K; read-out: Best potency measured on the 4 PI3K isoforms

| IC50 | SMILES |
| --- | --- |
| 1200 nM | CC(C)(C)OC(=O)N1CCC(n2nc(C(=O)N3CCOCC3)c3c2-c2ccccc2S(=O)(=O)C3)C1 (stereo not drawn) [Example 254] |
| 1480 nM | COCCN1CCC(n2nc(C(=O)N3CCOCC3)c3c2-c2ccccc2S(=O)(=O)C3)C1 (stereo not drawn) [Example 255, 1-[1-(2-Methoxyethyl)pyrrolidin-3-yl]-3-(morpholin-4-ylcarbonyl)-1,4-dihydrothiochromeno[4,3-c]pyrazole 5,5-dioxide] |
| 923 nM | COCCCN1CCC(n2nc(C(=O)N3CCOCC3)c3c2-c2ccccc2S(=O)(=O)C3)C1 (stereo not drawn) [Example 256, 1-[1-(3-Methoxypropyl)pyrrolidin-3-yl]-3-(morpholin-4-ylcarbonyl)-1,4-dihydrothiochromeno[4,3-c]pyrazole 5,5-dioxide] |
| 824 nM | CC(C)(C)OC(=O)N1CCCC(n2nc(C(=O)N3CCOCC3)c3c2-c2ccccc2S(=O)(=O)C3)CC1 (stereo not drawn) [Example 257] |
| 438 nM | COCCCN1CCCC(n2nc(C(=O)N3CCOCC3)c3c2-c2ccccc2S(=O)(=O)C3)CC1 (stereo not drawn) [Example 258, 1-[1-(3-Methoxypropyl)azepan-4-yl]-3-(morpholin-4-ylcarbonyl)-1,4-dihydrothiochromeno[4,3-c]pyrazole 5,5-dioxide] |
| 560 nM | O=C(c1nn(-c2cccc(CN3CCC(F)(F)CC3)c2)c2c1CS(=O)(=O)c1ccccc1-2)N1CCOCC1 [Example 260, 1-{3-[(4,4-Difluoropiperidin-1-yl)methyl]phenyl}-3-(morpholin-4-ylcarbonyl)-1,4-dihydrothiochromeno[4,3-c]pyrazole 5,5-dioxide] |
| 643 nM | O=C(c1nn(-c2cccc(CN3CC(F)(F)C3)c2)c2c1CS(=O)(=O)c1ccccc1-2)N1CCOCC1 [Example 261, 1-{3-[(3,3-Difluoroazetidin-1-yl)methyl]phenyl}-3-(morpholin-4-ylcarbonyl)-1,4-dihydrothiochromeno[4,3-c]pyrazole 5,5-dioxide] |
| 277 nM | COC1CN(Cc2cccc(-n3nc(C(=O)N4CCOCC4)c4c3-c3ccccc3S(=O)(=O)C4)c2)C1 [Example 262, 1-{3-[(3-Methoxyazetidin-1-yl)methyl]phenyl}-3-(morpholin-4-ylcarbonyl)-1,4-dihydrothiochromeno[4,3-c]pyrazole 5,5-dioxide] |
| 169 nM | O=C(c1nn(C2CCCN(CCn3cccn3)C2)c2c1CS(=O)(=O)c1ccccc1-2)N1CCOCC1 (stereo not drawn) [Example 263, 3-(Morpholin-4-ylcarbonyl)-1-{1-[2-(1H-pyrazol-1-yl)ethyl]piperidin-3-yl}-1,4-dihydrothiochromeno[4,3-c]pyrazole 5,5-dioxide] |
| 673 nM | O=C(c1nn(C2CCOCC2)c2c1CS(=O)(=O)c1c(Cl)cccc1-2)N1CCOCC1 [Example 264, 6-Chloro-3-(morpholin-4-ylcarbonyl)-1-(tetrahydro-2H-pyran-4-yl)-1,4-dihydrothiochromeno[4,3-c]pyrazole 5,5-dioxide] |
| 98 nM | O=C(c1nn(C2CCCN(CC3CCOC3)C2)c2c1CS(=O)(=O)c1ccccc1-2)N1CCOCC1 (stereo not drawn) [Example 265, 3-(Morpholin-4-ylcarbonyl)-1-[1-(tetrahydrofuran-3-ylmethyl)piperidin-3-yl]-1,4-dihydrothiochromeno[4,3-c]pyrazole 5,5-dioxide] |
| 350 nM | COC1CCN(Cc2cccc(-n3nc(C(=O)N4CCOCC4)c4c3-c3ccccc3S(=O)(=O)C4)c2)C1 (stereo not drawn) [Example 266, 1-{3-[(3-Methoxypyrrolidin-1-yl)methyl]phenyl}-3-(morpholin-4-ylcarbonyl)-1,4-dihydrothiochromeno[4,3-c]pyrazole 5,5-dioxide] |
| 59 nM | COC1CCN(Cc2ccc(-n3nc(C(=O)N4CCOCC4)c4c3-c3ccccc3S(=O)(=O)C4)cc2)C1 (stereo not drawn) [Example 267, 1-{4-[(3-Methoxypyrrolidin-1-yl)methyl]phenyl}-3-(morpholin-4-ylcarbonyl)-1,4-dihydrothiochromeno[4,3-c]pyrazole 5,5-dioxide] |
| 230 nM | O=C(c1nn(-c2ccc(CN3CCC(F)(F)CC3)cc2)c2c1CS(=O)(=O)c1ccccc1-2)N1CCOCC1 [Example 268, 1-{4-[(4,4-Difluoropiperidin-1-yl)methyl]phenyl}-3-(morpholin-4-ylcarbonyl)-1,4-dihydrothiochromeno[4,3-c]pyrazole 5,5-dioxide] |
| 280 nM | O=C(c1nn(C2CCN(CCC3CCOCC3)C2)c2c1CS(=O)(=O)c1ccccc1-2)N1CCOCC1 (stereo not drawn) [Example 270, 3-(Morpholin-4-ylcarbonyl)-1-{1-[2-(tetrahydro-2H-pyran-4-yl)ethyl]pyrrolidin-3-yl}-1,4-dihydrothiochromeno[4,3-c]pyrazole 5,5-dioxide] |
| 395 nM | O=C(c1nn(-c2ccc(CN3CC(F)(F)C3)cc2)c2c1CS(=O)(=O)c1ccccc1-2)N1CCOCC1 [Example 271, 1-{4-[(3,3-Difluoroazetidin-1-yl)methyl]phenyl}-3-(morpholin-4-ylcarbonyl)-1,4-dihydrothiochromeno[4,3-c]pyrazole 5,5-dioxide] |
| 165 nM | COC1CN(Cc2ccc(-n3nc(C(=O)N4CCOCC4)c4c3-c3ccccc3S(=O)(=O)C4)cc2)C1 [Example 272, 1-{4-[(3-Methoxyazetidin-1-yl)methyl]phenyl}-3-(morpholin-4-ylcarbonyl)-1,4-dihydrothiochromeno[4,3-c]pyrazole 5,5-dioxide] |
| 36 nM | O=C(c1nn(C2CCCN(CCN3CC(F)(F)C3)C2)c2c1CS(=O)(=O)c1ccccc1-2)N1CCOCC1 (stereo not drawn) [Example 273, 1-{1-[2-(3,3-Difluoroazetidin-1-yl)ethyl]piperidin-3-yl}-3-(morpholin-4-ylcarbonyl)-1,4-dihydrothiochromeno[4,3-c]pyrazole 5,5-dioxide] |
| 192 nM | O=C(c1nn(C2CCN(CCN3CCOCC3)C2)c2c1CS(=O)(=O)c1ccccc1-2)N1CCOCC1 (stereo not drawn) [Example 275, 3-(Morpholin-4-ylcarbonyl)-1-[1-(2-morpholin-4-ylethyl)pyrrolidin-3-yl]-1,4-dihydrothiochromeno[4,3-c]pyrazole 5,5-dioxide] |
| 875 nM | O=C(NC1CCCCC1)N1CCC(n2nc(C(=O)N3CCOCC3)c3c2-c2ccccc2S(=O)(=O)C3)C1 (stereo not drawn) [Example 276] |
| 149 nM | O=C(c1nn(C2CCN(CCN3CCC(F)CC3)C2)c2c1CS(=O)(=O)c1ccccc1-2)N1CCOCC1 (stereo not drawn) [Example 277, 1-{1-[2-(4-Fluoropiperidin-1-yl)ethyl]pyrrolidin-3-yl}-3-(morpholin-4-ylcarbonyl)-1,4-dihydrothiochromeno[4,3-c]pyrazole 5,5-dioxide] |
| 667 nM | COCc1ccc(-n2nc(C(=O)N3CCOCC3)c3c2-c2ccccc2S(=O)(=O)C3)cc1 [Example 278, 1-[4-(Methoxymethyl)phenyl]-3-(morpholin-4-ylcarbonyl)-1,4-dihydrothiochromeno[4,3-c]pyrazole 5,5-dioxide] |
| 711 nM | O=C(CC1CCCCC1)N1CCC(n2nc(C(=O)N3CCOCC3)c3c2-c2ccccc2S(=O)(=O)C3)C1 (stereo not drawn) [Example 279, 1-[1-(Cyclohexylacetyl)pyrrolidin-3-yl]-3-(morpholin-4-ylcarbonyl)-1,4-dihydrothiochromeno[4,3-c]pyrazole 5,5-dioxide] |

| SMILES | IC50 |
| --- | --- |
| O=C(c1nn(C2CCN(CCCl)C2)c2c1CS(=O)(=O)c1ccccc1-2)N1CCOCC1 (stereo not drawn) [Example 274] | 305 nM |
